Reference: patent publication US11117902B2, “Selective estrogen receptor degraders” (Eli Lilly and Company, priority 2018, dated 2021)

What was measured:
[1] = target: ERα receptor (Homo sapiens (Human), UniProt P03372); assay: PRα induction assay in MCF7 cells (ERα agonism); assay type: cell-based; settings: MCF7 breast cancer cells
Procedure: PRα Induction Assay in MCF7 Cells
The purpose of the following PRα induction assay is to determine whether a test compound has agonistic activity against ERα receptor (an agonist would be expected to activate the receptor).
Culture MCF7 (purchased from ATCC HTB-22) in DMEM media supplemented with 10% FBS, 0.01 mg/mL human insulin 1 and 1% penicillin/streptomycin antibiotics and plate the cells (prior to becoming 70% confluent) in 384-well flat-bottom plates at a density of 4,000 cells per well in 20 μL volume in DMEM phenol red free media containing 10% FBS (charcoal stripped). Incubate the cells overnight in a cell culture incubator (5% CO2, 95% relative humidity at 37° C.) and allow the cells to attach to the plate. The following day, dose the cells with test compound. Use an Echo 555 acoustic dispenser to prepare compound serial dilutions (1:3) in a range from 6 μM to 0.0003 μM. Dose the cells with the addition of the test compound (5 μL) from the serial dilution plate to the cell plate producing a final DMSO concentration of 0.2% with a final concentration of the test compound dose range between 2 and 0.0001 μM. For the maximum point use media containing 0.2% of DMSO and for the minimum point, use fulvestrant diluted at […] final concentrations in the growth media containing 0.2% DMSO. After dosing with the test compound, incubate the cell plates at 37° C. and 5% CO2 for 24 hours. Fix the cells by adding 14% para-formaldehyde (10 μL) for 30 minutes at room temperature. Wash cells once with PBS (20 μL) and incubate with PBS (20 μL) containing 0.5% (v/v) TWEEN® 20 for 1 hour. […]
The following day, wash cells with PBS 0.05% TWEEN® 20 (2×20 μL) and incubate with secondary antibody (20 μL/well) (1:1000 dilution, Goat anti-rabbit IgM ALEXA FLUOR™ 488) in PBS 1% BSA for 105 minutes at room temperature. […] Scan plates with ACUMEN EXPLORER™ [Laser-scanning fluorescence microplate cytometer manufactured by TTP LABTECH LTD] to measure PRα. […]

[2] = Rat oral bioavailability assay; assay type: in vivo; settings: plasma, Sprague-Dawley rats, IV 1 mg/kg, PO 10 mg/kg, read-out: oral bioavailability (% F)
Procedure: Rat Oral Bioavailability Assay
Administer the test compound to Sprague-Dawley rats IV at 1 mg/kg (using vehicles of either: 20% CAPTISOL® in 25 mM sodium phosphate buffer, pH2 quantum satis; or 25% DMA, 15% EtOH, 10% propylene glycol, 25% 2-pyrrolidone, and 25% purified water) and PO at 10 mg/kg (using a vehicle of 1% hydroxyethyl cellulose, 0.25% polysorbate 80, 0.05% Antifoam 1510-US, and purified water quantum satis). Collect serial blood samples at 0.08, 0.25, 0.5, 1, 2, 4, 8, and 12 hours post dose for IV bolus and at 0.25, 0.5, 1, 2, 4, 8, and 12 hours post dose after oral administration. After treatment with an EDTA […], obtain plasma by centrifugation and store at −70° C. until analysis by LC-MS/MS. Determine the test compound concentration in plasma and upload into the Watson LIMS™ system where noncompartmental analysis is used to calculate Area Under the Curve (AUC) for both IV and PO arms. Calculate oral bioavailability (% F) via the following equation, % F=(AUCPO×DoseIV)/(AUCIV×DosePO)×100.

Sequence of ERα receptor (P03372 whole entry): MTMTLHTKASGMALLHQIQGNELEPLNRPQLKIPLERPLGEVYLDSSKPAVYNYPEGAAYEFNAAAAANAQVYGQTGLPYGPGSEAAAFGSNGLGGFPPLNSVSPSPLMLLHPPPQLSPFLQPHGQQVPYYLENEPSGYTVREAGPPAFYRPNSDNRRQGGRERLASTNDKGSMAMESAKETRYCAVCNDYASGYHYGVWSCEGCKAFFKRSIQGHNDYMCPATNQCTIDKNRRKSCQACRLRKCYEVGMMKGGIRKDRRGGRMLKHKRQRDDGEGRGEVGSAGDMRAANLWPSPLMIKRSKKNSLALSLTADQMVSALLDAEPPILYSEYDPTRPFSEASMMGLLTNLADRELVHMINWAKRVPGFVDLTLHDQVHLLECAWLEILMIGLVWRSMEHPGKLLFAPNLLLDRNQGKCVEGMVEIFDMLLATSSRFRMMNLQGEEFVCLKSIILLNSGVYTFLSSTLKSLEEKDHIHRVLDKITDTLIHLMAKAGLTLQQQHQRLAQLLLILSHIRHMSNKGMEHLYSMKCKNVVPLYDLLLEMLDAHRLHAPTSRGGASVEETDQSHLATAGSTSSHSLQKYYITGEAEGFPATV

Q: Which “agonistic activity (PRα induction)” value [1] does the source give for `Oc1ccc2c3c(cnc2c1)-c1ccc(C(F)(F)F)cc1OC3c1ccc(OCCN2CC(CF)C2)cc1` (single isomer, unassigned; isomer 1) [Example 1A, 5-(4-{2-[3-(Fluoromethyl)azetidin-1-yl]ethoxy}phenyl)-8-(trifluoromethyl)-5H-[1]benzopyrano[4,3-c]quinolin-2-ol, Isomer 1] here?
A: Its value is “no significant agonistic activity”.

Q: For `Oc1ccc2c3c(cnc2c1)-c1ccc(C(F)(F)F)cc1OC3c1ccc(OCCN2CC(CF)C2)cc1` (racemic) [Example 1, Racemic 5-(4-{2-[3-(Fluoromethyl)azetidin-1-yl]ethoxy}phenyl)-8-(trifluoromethyl)-5H-[1]benzopyrano[4,3-c]quinolin-2-ol], which “agonistic activity (PRα induction)” value [1] is on record?
A: Its value is “no significant agonistic activity”.

Q: For `Oc1ccc2c3c(cnc2c1)-c1ccc(C(F)(F)F)cc1OC3c1ccc(OCCN2CC(CF)C2)cc1` (single isomer, unassigned; isomer 2) [Example 1B, 5-(4-{2-[3-(Fluoromethyl)azetidin-1-yl]ethoxy}phenyl)-8-(trifluoromethyl)-5H-[1]benzopyrano[4,3-c]quinolin-2-ol, Isomer 2], which “agonistic activity (PRα induction)” value [1] is on record?
A: Its value is “no significant agonistic activity”.

Q: And the bioavailability [2]?
A: The bioavailability was ~50%.
